For this assay, the system named is P388 leukemia ip, CD2F1 mice, survival T/C. In words: NCI In Vivo Anticancer Drug Screen. Data for tumor model P388 Leukemia (intraperitoneal) in CD2F1 (CDF1) mice. To be noted: endpoint: median survival time, higher = longer survival. In short, it runs like this:
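Mice carrying the transplanted tumor received test compound or vehicle. Survival was recorded in each group, and the value is the treated-group measurement divided by that of the vehicle-treated control group.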

Where [1] appears, read: dose: 50.0 mg/kg/injection, schedule: Q01DX009 (ip), vehicle: saline with Tween-80.
Setting [2] is: dose: 100.0 mg/kg/injection, schedule: Q01DX009 (ip), vehicle: saline with Tween-80.
Where [3] appears, read: dose: 200.0 mg/kg/injection, schedule: Q01DX009 (ip), vehicle: saline with Tween-80.
The mark [4] stands for this setting: dose: 60.0 mg/kg/injection, schedule: Q01DX005 (ip), vehicle: saline with Tween-80.
[5] abbreviates: dose: 120.0 mg/kg/injection, schedule: Q01DX005 (ip), vehicle: saline with Tween-80.
[6] abbreviates: dose: 240.0 mg/kg/injection, schedule: Q01DX005 (ip), vehicle: saline with Tween-80.
Where [7] appears, read: dose: 50.0 mg/kg/injection, schedule: Q01DX009 (ip), vehicle: saline.
Where [8] appears, read: dose: 100.0 mg/kg/injection, schedule: Q01DX009 (ip), vehicle: saline.
Where [9] appears, read: dose: 200.0 mg/kg/injection, schedule: Q01DX009 (ip), vehicle: saline.
[10] abbreviates: dose: 50.0 mg/kg/injection, schedule: Q01DX009 (ip), vehicle: Klucel (hydroxypropylcellulose) (HPC).
Where [11] appears, read: dose: 100.0 mg/kg/injection, schedule: Q01DX009 (ip), vehicle: Klucel (hydroxypropylcellulose) (HPC).
Setting [12] is: dose: 25.0 mg/kg/injection, schedule: Q01DX009 (ip), vehicle: saline with Tween-80.

Molecules are shown by their SMILES. Values joined by “and” are separate entries in the source; they are usually repeats but may differ in a detail not shown here. Equal values may be shown once. Inconclusive results and toxic doses are left out.

Turning to `C/C=C/C(=O)Oc1ccccc1/C=C/C(=O)CCCCCC`, the T/C is 92 % of control (dose: 50.0 mg/kg/injection, schedule: Q01DX005 (ip), vehicle: saline with Tween-80); 98 % of control (dose: 100.0 mg/kg/injection, schedule: Q01DX005 (ip), vehicle: saline with Tween-80); 100 % of control (dose: 200.0 mg/kg/injection, schedule: Q01DX005 (ip), vehicle: saline with Tween-80).
For `CNC(=O)OCc1ccccc1-c1ccccc1`, the T/C is, setting by setting: under setting [1], 98 % of control; under setting [2], 97 % of control; under setting [3], 95 % of control.
With `Cc1cc2nnn(-c3ncccc3[N+](=O)[O-])c2cc1C`, the T/C was 104 % of control under setting [4], 101 % of control under setting [5] and 101 % of control under setting [6].
As to `O=C(O)c1c[nH]c2cc(OCCOc3ccccc3)ccc2c1=O`, the T/C reads like this: under setting [7], 107 % of control; under setting [8], 107 % of control; under setting [9], 100 % of control.
In the case of `O=C1Nc2ccccc2C1=Nc1cccc2cnccc12`, the T/C is, setting by setting: (dose: 60.0 mg/kg/injection, schedule: Q01DX005 (ip), vehicle: Klucel (hydroxypropylcellulose) (HPC)) 100 % of control; (dose: 120.0 mg/kg/injection, schedule: Q01DX005 (ip), vehicle: Klucel (hydroxypropylcellulose) (HPC)) 95 % of control; (dose: 240.0 mg/kg/injection, schedule: Q01DX005 (ip), vehicle: Klucel (hydroxypropylcellulose) (HPC)) 98 % of control.
On to `CCOC(=O)C1=C(C)NC(=O)NC1c1cccc(OC)c1O` (stereo not drawn), for which the T/C (dose: 50.0 mg/kg/injection, schedule: Q01DX005 (ip), vehicle: Klucel (hydroxypropylcellulose) (HPC)) was 94 % of control; the T/C (dose: 100.0 mg/kg/injection, schedule: Q01DX005 (ip), vehicle: Klucel (hydroxypropylcellulose) (HPC)) was 91 % of control; the T/C (dose: 200.0 mg/kg/injection, schedule: Q01DX005 (ip), vehicle: Klucel (hydroxypropylcellulose) (HPC)) was 97 % of control.
Regarding `CC1(C)COP(=O)(c2ccccc2)N1` (stereo not drawn), the T/C by setting is: under setting [4], 103 % of control; under setting [5], 107 % of control; under setting [6], 101 % of control.
For the compound `Cc1ccc(NC(=S)SCc2ccc(Cl)c(Cl)c2)cc1C`, the T/C is 116 % of control under setting [10]; 96 % of control (dose: 50.0 mg/kg/injection, schedule: Q01DX009 (ip), vehicle: suspension in saline); 113 % of control under setting [11]; 100 % of control (dose: 100.0 mg/kg/injection, schedule: Q01DX009 (ip), vehicle: suspension in saline); 109 % of control (dose: 200.0 mg/kg/injection, schedule: Q01DX009 (ip), vehicle: Klucel (hydroxypropylcellulose) (HPC)); 101 % of control (dose: 200.0 mg/kg/injection, schedule: Q01DX009 (ip), vehicle: suspension in saline).
With `Cc1ccc(I)c(C(O)(C(F)(F)F)C(F)(F)F)c1`, the T/C runs as follows: under setting [10], 97 % of control; under setting [11], 91 % of control.
For `CC1(C)CC(=O)C2=C(C1)Oc1c(Cl)cc(Cl)cc1C2`, the T/C is 108 % of control under setting [7], 98 % of control under setting [8] and 92 % of control under setting [9].
As for `CCCC/C=C/[Se]c1ccccc1`, the T/C by setting is: under setting [12], 101 % of control; under setting [1], 151 % of control; under setting [2], 109 % of control.
For the compound `CCN(CC)CCNc1ccc(COC(=O)OC)c2oc3ccccc3c(=O)c12`, the T/C reads like this: (dose: 6.25 mg/kg/injection, schedule: Q01DX005 (ip), vehicle: saline with Tween-80) 115 % of control; (dose: 12.5 mg/kg/injection, schedule: Q01DX005 (ip), vehicle: saline with Tween-80) 111 % of control; (dose: 25.0 mg/kg/injection, schedule: Q01DX005 (ip), vehicle: saline with Tween-80) 97 % of control.
For `[C-]#[O+].[C-]#[O+].[C-]#[O+].[C-]#[O+].[Mo].c1cnc2c(c1)ccc1cccnc12`, the T/C runs as follows: (dose: 6.25 mg/kg/injection, schedule: Q01DX009 (ip), vehicle: Klucel (hydroxypropylcellulose) (HPC)) 100 % of control; (dose: 12.5 mg/kg/injection, schedule: Q01DX009 (ip), vehicle: Klucel (hydroxypropylcellulose) (HPC)) 95 % of control; (dose: 25.0 mg/kg/injection, schedule: Q01DX009 (ip), vehicle: Klucel (hydroxypropylcellulose) (HPC)) 93 % of control; under setting [10], 95 % of control.
`CCCCCCCCCCC[N+](C)([O-])CCCCCC[N+](C)([O-])CCCCCCCCCCC` (stereo not drawn): the T/C (dose: 12.5 mg/kg/injection, schedule: Q01DX009 (ip), vehicle: saline with Tween-80) was 100 % of control; the T/C under setting [12] is 100 % of control; the T/C under setting [1] was 102 % of control and 96 % of control.
Take `CCCCCOCC(=O)OC`: the T/C was 98 % of control under setting [1], 102 % of control under setting [2] and 103 % of control under setting [3].
Consider `O=C1C(=O)c2nc3ccccc3nc2-c2ccccc21`, for which the T/C is 103 % of control (dose: 25.0 mg/kg/injection, schedule: Q01DX005 (ip), vehicle: water); 97 % of control (dose: 50.0 mg/kg/injection, schedule: Q01DX005 (ip), vehicle: water); 100 % of control (dose: 100.0 mg/kg/injection, schedule: Q01DX005 (ip), vehicle: water); 96 % of control (dose: 200.0 mg/kg/injection, schedule: Q01DX005 (ip), vehicle: water); 104 % of control (dose: 400.0 mg/kg/injection, schedule: Q01DX005 (ip), vehicle: water).
